In US7923441B2, “Enhancement of activity and/or duration of action of soft anti-inflammatory steroids for topical or other local application” (priority 2003, dated 2011):

Legend:
[1] = test system: forearms of human volunteers; assay: Further human vasoconstriction testing; type: in vivo; settings: for effect on the vasoconstriction activity of BEM-17V: BEM-17V 0.1 mM; for effect on the vasoconstriction activity of BEM-17V / effect on the vasoconstriction activity of LE: enhancer 0.1-0.5 mM; for effect on the vasoconstriction activity of LE: LE 0.1 mM; for synergism with LE: LE:enhancer ratios 1:1, 1:2, 1:3, 1:4 and 1:5; for AUC (sum of the individual vasoconstriction scores through 24 hours): steroid 0.1 mM alone
Protocol: The resultant LE and BEM-17V solutions were then mixed (1:1) with vehicle only, or with the Δ^1-CA or Δ^1-MeCA solutions, so that LE solutions (0.1 mM) and BEM-17V solutions (0.1 mM) containing various concentrations of Δ^1-CA (0 to 0.5 mM) or Δ^1-MeCA (0 to 0.5 mM) were obtained. The resultant mixtures (20 μl) were loaded onto circular patches (6.5 mm diameter) that were attached to a water impervious adhesive film (3M). After the evaporation of ethanol, the patches and film were applied to the forearms of human volunteers for 4 hours. […] The grading scale was as follows: 0, normal skin; 1, slight pallor; 2, pallor with at least two corners outlined; 3, even pallor with a clear outline of the application sites; 4, very intense pallor. […] As before, an overall total for each concentration was then obtained.

[2] = test system: forearm of a human volunteer; assay: Human vasoconstriction (blanching) testing; type: in vivo; settings: for effect on the vasoconstrictor activity of loteprednol etabonate: co-applied, 1:5 molar ratio loteprednol etabonate:enhancer, especially at the lower concentrations; for AUC (sum of the individual vasoconstriction scores through 36 hours): compound alone; for vasoconstriction activity: tested alone
Protocol: Test compounds at varying mM concentrations as noted below were dissolved in ethanol/propylene glycol (9/1) solution, and 20 μL of the mixtures were applied to filter paper discs, 0.7 cm in diameter. After ethanol evaporation, each disc was attached to waterproof adhesive tape, then applied to the forearm of a human volunteer and left in place for 4 hours. Groups of 8 forearms were tested at each concentration. The intensity of vasoconstriction was judged at 2, 4, 6, 8, 10, 12, 18, 24 and 36 hours after removal of the discs.
The grading scale for the vasoconstriction activity was as follows: 0, normal skin; 1, slight pallor of indistinct outline; 2, pallor with at least two corners outlined; 3, even pallor with a clear outline of the application sites; 4, very intense pallor. The scores were totaled at each concentration at each time after removal to give a total score at each time interval and an overall total for each concentration. The higher the total score, the greater the blanching or anti-inflammatory effect.

receptor = target: T1, receptor (Rattus norvegicus, UniProt P06536); settings: medium containing 10^−5M cortienic acid as competitor; cited from earlier work
T1 sequence (P06536 1-795): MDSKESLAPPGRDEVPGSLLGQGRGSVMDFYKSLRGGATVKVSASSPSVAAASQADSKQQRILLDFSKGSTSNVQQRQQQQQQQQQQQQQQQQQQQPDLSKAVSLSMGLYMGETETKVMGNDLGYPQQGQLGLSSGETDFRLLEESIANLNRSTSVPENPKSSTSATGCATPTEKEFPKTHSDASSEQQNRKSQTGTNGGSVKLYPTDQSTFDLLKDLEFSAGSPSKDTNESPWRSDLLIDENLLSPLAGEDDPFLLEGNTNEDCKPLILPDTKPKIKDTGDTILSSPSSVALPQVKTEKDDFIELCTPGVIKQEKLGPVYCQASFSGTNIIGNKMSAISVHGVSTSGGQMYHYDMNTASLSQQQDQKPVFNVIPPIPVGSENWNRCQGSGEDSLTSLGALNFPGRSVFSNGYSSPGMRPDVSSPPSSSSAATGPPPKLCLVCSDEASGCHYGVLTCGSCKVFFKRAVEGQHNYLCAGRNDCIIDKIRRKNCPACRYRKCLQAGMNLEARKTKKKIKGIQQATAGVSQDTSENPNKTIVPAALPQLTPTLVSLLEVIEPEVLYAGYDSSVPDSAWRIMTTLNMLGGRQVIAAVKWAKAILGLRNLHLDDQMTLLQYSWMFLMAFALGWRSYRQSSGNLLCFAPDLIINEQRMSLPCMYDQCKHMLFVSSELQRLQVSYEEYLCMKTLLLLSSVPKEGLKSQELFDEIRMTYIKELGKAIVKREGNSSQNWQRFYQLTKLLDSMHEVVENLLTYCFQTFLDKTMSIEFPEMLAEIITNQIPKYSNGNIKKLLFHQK

[3] = control (0 mM) of the Δ^1-CA series
[4] = control (0 mM) of the Δ^1-MeCA series

With `COC(=O)[C@@]1(O)CCC2C3CCC4=CC(=O)C=CC4(C)C3C(O)CC21C` (stereo partly drawn) [Δ^1-Cortienic Acid Methyl Ester, methyl 11β,17α-dihydroxyandrosta-1,4-dien-3-one-17β-carboxylate] the “effect on the vasoconstriction activity of BEM-17V” value [1] was “no activity-increasing effect”, the “effect on the vasoconstriction activity of LE” value [1] was “increased the vasoconstriction activity of LE” and the “synergism with LE” value [1] was “synergistic results”. For the same compound, the “effect on the vasoconstrictor activity of loteprednol etabonate” value [2] was “significantly enhanced”, the “AUC (sum of the individual vasoconstriction scores through 36 hours)” value ([2]; 0.5 mM) was 0 and the “AUC (sum of the individual vasoconstriction scores through 36 hours)” value ([2]; 2.5 mM) was 0. For the same compound, the “AUC (sum of the individual vasoconstriction scores through 36 hours)” value ([2]; 5 mM) was 0, the “AUC (sum of the individual vasoconstriction scores through 36 hours)” value ([2]; 25 mM) was 0 and the “AUC (sum of the individual vasoconstriction scores through 36 hours)” value ([2]; 50 mM) was 0. For the same compound, the vasoconstriction activity [2] was “neither Δ^1-cortienic acid nor Δ^1-cortienic acid methyl ester had any vasoconstriction activity”.
For “betamethasone 17-valerate [Betamethasone Valerate, reference compound]”, the “AUC (sum of the individual vasoconstriction scores through 24 hours)” value [1, 3] was 107 and the “AUC (sum of the individual vasoconstriction scores through 24 hours)” value [1, 4] was 112.
In the case of “chloromethyl 17α-ethoxycarbonyloxy-11β-hydroxyandrosta-1,4-dien-3-one-17β-carboxylate [Loteprednol Etabonate, reference compound]”, the “intrinsic activity in receptor binding studies” value (shortened to “intrinsic activity”) (receptor) is given as “intrinsically active”.
For `CCOC(=O)O[C@]1(C(=O)OCCl)CC[C@H]2[C@@H]3CCC4=CC(=O)C=C[C@]4(C)[C@H]3[C@@H](O)C[C@@]21C` [Loteprednol Etabonate, chloromethyl 17α-ethoxycarbonyloxy-11β-hydroxyandrosta-1,4-dien-3-one-17β-carboxylate, reference compound], the “AUC (sum of the individual vasoconstriction scores through 24 hours)” value [1, 3] was 99, the “AUC (sum of the individual vasoconstriction scores through 24 hours)” value [1, 4] was 114 and the “AUC (sum of the individual vasoconstriction scores through 36 hours)” value ([2]; 0.1 mM, 20 μL on disc, 4 h application, 8 forearms) was 9. The “AUC (sum of the individual vasoconstriction scores through 36 hours)” value ([2]; 0.5 mM) was 39, the “AUC (sum of the individual vasoconstriction scores through 36 hours)” value ([2]; 1 mM) was 90 and the “AUC (sum of the individual vasoconstriction scores through 36 hours)” value ([2]; 5 mM) was 117. For the same compound, the “AUC (sum of the individual vasoconstriction scores through 36 hours)” value ([2]; 10 mM) was 122 and the vasoconstriction activity [2] was “significant activity”.
For `CCOC(=O)OC1(C(=O)O)CCC2C3CCC4=CC(=O)C=CC4(C)C3C(O)CC21C` (stereo not drawn) [the corresponding 17α-ethyl carbonate, 17α-ethoxycarbonyloxy-11β-hydroxyandrost-1,4-dien-3-one-17β-carboxylic acid], the “intrinsic activity” value (receptor) is listed as “inactive”.
In the case of `CC12C=CC(=O)C=C1CCC1C2C(O)CC2(C)C1CC[C@]2(O)C(=O)O` (stereo partly drawn) [Δ^1-Cortienic Acid, 11β,17α-dihydroxyandrosta-1,4-dien-3-one-17β-carboxylic acid], the “intrinsic activity” value (receptor) is listed as “inactive”, the “effect on the vasoconstriction activity of BEM-17V” value [1] is listed as “no activity-increasing effect” and the “effect on the vasoconstriction activity of LE” value [1] is listed as “increased the vasoconstriction activity of LE”. For the same compound, the “synergism with LE” value [1] was “synergistic results”, the “effect on the vasoconstrictor activity of loteprednol etabonate” value [2] was “significantly enhanced” and the “AUC (sum of the individual vasoconstriction scores through 36 hours)” value ([2]; 0.5 mM) was 0. For the same compound, the “AUC (sum of the individual vasoconstriction scores through 36 hours)” value ([2]; 2.5 mM) was 0, the “AUC (sum of the individual vasoconstriction scores through 36 hours)” value ([2]; 5 mM) was 0 and the “AUC (sum of the individual vasoconstriction scores through 36 hours)” value ([2]; 25 mM) was 0. The “AUC (sum of the individual vasoconstriction scores through 36 hours)” value ([2]; 50 mM) was 0 and the vasoconstriction activity [2] was “neither Δ^1-cortienic acid nor Δ^1-cortienic acid methyl ester had any vasoconstriction activity”.
